Entries after “also recorded” stand apart in the source; their conditions may differ.
Assays:
Format in all cases: in vivo, mouse
TPH2 mRNA [1] = assay: TPH2 mRNA levels in murine raphe slice preparation of ovariectomized female mice by real-time RT-PCR; conditions: prednisolone 10 mpk once daily; FIGS. 7 and 8
Source text: Female mice (13 to 16 wks of age) were ovariectomized (C57BL/6s from Charles River; ER Knockout animals from Taconic). Animals were fed a soy-free rodent chow and allowed a minimum of one week to recuperate from surgery and shipping. […] Approximately six hours following the fourth dose, mice were deeply anesthetized with ketamine/xylazine and brains were removed from the skull, placed ventral side up in a mouse brain block on ice, and ice-cold razor blades were inserted into the block at 1 mm intervals. The caudal extent of the hypothalamus was used as an anatomical marker for the placement of the first razor blade, and 4 blades were placed in sequential slots, caudally. The four sections were examined and the two that encompassed the greatest extent of the dorsal raphe were placed in a tube containing […] (Ambion, Austin, Tex.) and placed at 4° C. overnight. Brain slices were removed from […] after 24 hours and stored at −80° C. in fresh tubes.
Two TPH2 primer and probe sets were generated for use in detecting TPH2 by real-time RT-PCR. Murine TPH2 forward primers were mTPH2-514F and mTPH2-1270F, their corresponding sequences are 5′-[…]-3′ (SEQ ID NO:7; corresponding to nucleotides 514 to 535 of the nucleotide sequence encoding TPH2) and 5′-[…]-3′ (SEQ ID NO:8; corresponding to nucleotides 1270 to 1290 of the nucleotide sequence encoding TPH2), respectively. The murine TPH2 reverse primers were mTPH2-585R and mTPH2-1344R, their corresponding sequences are 5′-[…]-3′ (SEQ ID NO:9; corresponding to nucleotides 567 to 585 of the nucleotide sequence encoding TPH2) and 5′-[…]-3′ (SEQ ID NO:10; corresponding to nucleotides 1324 to 1344 of the nucleotide sequence encoding TPH2), respectively. The murine TPH2 probes were mTPH2-565T and mTPH2-1292T, their corresponding sequences are: 5′-[…]-3′ (SEQ ID NO:11; corresponding to nucleotides 539 to 565 of the nucleotide sequence encoding TPH2) and 5′-[…]-3′ (SEQ ID NO:12; corresponding to nucleotides 1292 to 1317 of the nucleotide sequence encoding TPH2), respectively. The probes were labeled at the 5′ end with FAM and the 3′ end with TAMRA.
Isolation of total RNA from mouse raphe slices for real-time PCR analysis using the TAQMAN ABI PRISMS 7700 Detection System, Applied Biosystems, Foster City, Calif. was as follows. Samples were stored in […] at 4° C. overnight followed by removal of […] and storage at −80° C. until isolation of the total RNA (2 slices weigh 25 to 50 mg). Slices were removed from −80° C. and placed in 1.0 mL TRIZOL Reagent in FASTPREP processing tubes. Slices were homogenized with one pass at setting 6 for 30 seconds in FASTPREP 120 homogenizer using LYSING MATRIX D tubes with bead matrix followed by 20 seconds at setting 6 after all samples had been processed. Samples were set at room temperature for 5 minutes to allow for complete dissociation of nucleoprotein complexes followed by centrifugation of the samples at 12,000×g for 5 minutes at 4° C. Homogenates were transferred to 1.5 mL; microcentrifuge tubes and 100 μL BCP (Bromo-3-chloropropane) was added. Samples were vortexed for 15 seconds and set at room temperature for 2 to 3 minutes. Samples were centrifuged at 12,000×g for 15 minutes at 4° C. The aqueous layer was removed and placed in a new RNAse-free sterile 1.5 mL microcentrifuge tube. Five μL of 5 mg/μL glycogen was added to each sample and the samples were vortexed. Five hundred μL of isopropanol was added to each sample. The samples were vortexed for 15 seconds, set at room temperature 10 minutes, followed by centrifugation at 12,000×g for 15 minutes at 4° C. Supernatants were decanted and pellets washed with 500 μL ice cold 75% ethanol.

TPH1 mRNA = TPH1 mRNA levels in murine raphe slice preparation by real-time RT-PCR; conditions: FIG. 6
Source text: Female mice (13 to 16 wks of age) were ovariectomized (C57BL/6s from Charles River; ER Knockout animals from Taconic). Animals were fed a soy-free rodent chow and allowed a minimum of one week to recuperate from surgery and shipping. […] Approximately six hours following the fourth dose, mice were deeply anesthetized with ketamine/xylazine and brains were removed from the skull, placed ventral side up in a mouse brain block on ice, and ice-cold razor blades were inserted into the block at 1 mm intervals. The caudal extent of the hypothalamus was used as an anatomical marker for the placement of the first razor blade, and 4 blades were placed in sequential slots, caudally. The four sections were examined and the two that encompassed the greatest extent of the dorsal raphe were placed in a tube containing RNALATER (Ambion, Austin, Tex.) and placed at 4° C. overnight. Brain slices were removed from RNALATER after 24 hours and stored at −80° C. in fresh tubes.
Isolation of total RNA from mouse raphe slices for real-time PCR analysis using the TAQMAN ABI PRISMS 7700 Detection System, Applied Biosystems, Foster City, Calif. was as follows. Samples were stored in RNALATER at 4° C. overnight followed by removal of RNALATER and storage at −80° C. until isolation of the total RNA (2 slices weigh 25 to 50 mg). Slices were removed from −80° C. and placed in 1.0 mL TRIZOL Reagent in FASTPREP processing tubes. Slices were homogenized with one pass at setting 6 for 30 seconds in FASTPREP 120 homogenizer using LYSING MATRIX D tubes with bead matrix followed by 20 seconds at setting 6 after all samples had been processed. Samples were set at room temperature for 5 minutes to allow for complete dissociation of nucleoprotein complexes followed by centrifugation of the samples at 12,000×g for 5 minutes at 4° C. Homogenates were transferred to 1.5 mL; microcentrifuge tubes and 100 μL BCP (Bromo-3-chloropropane) was added. Samples were vortexed for 15 seconds and set at room temperature for 2 to 3 minutes. Samples were centrifuged at 12,000×g for 15 minutes at 4° C. The aqueous layer was removed and placed in a new RNAse-free sterile 1.5 mL microcentrifuge tube. Five μL of 5 mg/μL glycogen was added to each sample and the samples were vortexed. Five hundred μL of isopropanol was added to each sample. The samples were vortexed for 15 seconds, set at room temperature 10 minutes, followed by centrifugation at 12,000×g for 15 minutes at 4° C. Supernatants were decanted and pellets washed with 500 μL ice cold 75% ethanol. Samples were centrifuged at 12,000×g for 15 minutes at 4° C., ethanol decanted, and pellets air dried for 10 minutes. Pellets were resuspended in 30 μL prewarmed RNASECURE (60° C.), and heated at 60° C. for 10 min. Samples were stored at −80° C. until DNAse treatment and cDNA synthesis.
DNase treatment and cDNA preparation with wt mouse raphe slice total RNA for TAQMAN analysis. DNase treatment using DNA-free kit (Ambion). Five μg of the total RNA sample was aliquotted to each well of a 96 well plate. An 1× DNase I solution was added to each sample (DNase I buffer, DNase I, H2O). Reactions were mixed and incubated at 37° C. for 30 minutes. Reactions were inactivated by addition of DNase inactivation reagent beads, mixed well at room temperature for 3 minutes and centrifuged at 2,500 RPM for 1 minutes at 4° C. (25 μL reactions were run and inactivated with 1/10 volume of inactivation reagent).
Reverse Transcription. A 10 μL of the DNase I-treated total RNA was added to 40 μL of 1× reverse transcription reaction mix (DEPC treated H2O, RT buffer, MgCl2, dNTP mix, random hexamers, RNase inhibitor, and MULTISCRIBE RT) and incubated at 25° C. for 10 minutes, 48° C. for 30 minutes, and 95° C. for 5 minutes. Reverse transcription was halted by the addition of EDTA. Samples were transferred to a storage plate and stored at −20° C. […]

TPH2 mRNA [2] = assay: TPH2 mRNA in raphe slice preparation of male BKTO mice under chronic corticosterone, real-time RT-PCR; conditions: 14 days, equivalent of 40mg/kg/day
Method: (§1) Male BKTO mice (Bantin and Kingman, Hull UK) weighing 25 g at the start of the experiment were briefly anaesthetized using isofluorane. Animals were implanted with 4×5 mg cortic/sterone pellets (Innovative Research of America, catalogue number G-111, 21 day release formulation) or 4× placebo pellets (catalogue number NC-111) this gave an equivalent of 40mg/kg/day of corticosterone. Pellets were implanted using a trochar supplied by the manufacturer which had been modified to allow 4 pellets to be held in one trochar, thus requiring only one incision per animal. The most ideal place to implant the pellet was where there is maximal space between the skin and the muscle such as the lateral side of the neck between the ear and the shoulder-no stitching or wound clipping was required when using this technique. Animals were returned to the home cage and allowed to recover. Fourteen days later, the animals were humanely killed and trunk blood collected into EDTA coated tubes, centrifuged for 10 minutes at 3000 rpm, and plasma removed and frozen on dry ice until ready for analysis. Brains were removed, frozen in isopentane, and stored at −80° C. until ready for analysis. […] Plasma corticosterone was analyzed using a COAT-A-COUNT rat corticosterone radioimmunoassay kit (DPC Products-Order no TKRC1). […]

[3] = Plasma corticosterone in male BKTO mice (radioimmunoassay); conditions: 4×5 mg pellets, equivalent of 40mg/kg/day, 14 days, FIG. 10, p=0.004
Method: as §1

Row | Compound | effect on TPH2 mRNA expression compared to vehicle (TPH2 mRNA [1]) | effect on TPH1 mRNA levels (TPH1 mRNA; 10 mpk s.c., ovariectomized mice) | change of TPH1 mRNA levels in response to treatment (TPH1 mRNA; murine raphe slice preparations, dose not stated) | level of TPH2 mRNA in raphe slice preparation (TPH2 mRNA [2]; FIG. 11, p=0.01) | level of TPH2 mRNA in raphe slice preparation (TPH2 mRNA [2]; FIG. 11, p=0.01, listed as corticosterone) | plasma levels after treatment [3]
1 | C[C@]12C=CC(=O)C=C1CC[C@@H]1[C@@H]2[C@@H](O)C[C@@]2(C)[C@H]1CC[C@]2(O)C(=O)CO [prednisolone] | decrease; also recorded: significant reduction | neither 3 mpk of dexamethasone nor 10 mpk prednisolone had any effect; also recorded: no effect | no detectable change |  |  | 
2 | C[C@]12C[C@H](O)[C@H]3[C@@H](CCC4=CC(=O)CC[C@@]43C)[C@@H]1CC[C@@H]2C(=O)CO [corticosterone] |  |  |  | significantly reduced | significant decrease | significant increase

Reference: patent publication US20070274916A1, “Method for Identifying Compounds that Affect Expression of Tryptophan Hydroxylase Isoform 2” (priority 2003, published 2007)
